Target: Induced myeloid leukemia cell differentiation protein Mcl-1 (Homo sapiens, UniProt Q07820)
Assay: regulators of Bim-Mcl-1 interaction, confirmation, biochemical, bead-based flow cytometry, multiplex, HTS hits (AID 2086)
[1] = inactive by the depositor's call

Sequence of Induced myeloid leukemia cell differentiation protein Mcl-1 (Q07820 whole entry): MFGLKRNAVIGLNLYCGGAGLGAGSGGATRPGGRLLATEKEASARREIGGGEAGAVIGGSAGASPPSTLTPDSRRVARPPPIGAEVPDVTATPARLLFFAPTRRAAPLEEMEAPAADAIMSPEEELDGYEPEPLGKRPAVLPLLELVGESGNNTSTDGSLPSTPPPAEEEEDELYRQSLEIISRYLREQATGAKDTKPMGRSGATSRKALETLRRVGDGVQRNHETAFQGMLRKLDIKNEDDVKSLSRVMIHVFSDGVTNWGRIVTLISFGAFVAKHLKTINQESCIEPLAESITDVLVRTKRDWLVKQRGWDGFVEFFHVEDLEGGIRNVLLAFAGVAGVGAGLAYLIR

| Structure (SMILES) | EC50 [1] [µM] | EC50 [µM] |
| --- | --- | --- |
| O=C(NCc1ccccc1)c1ccc2nc(-c3ccco3)c(-c3ccco3)nc2c1 [2,3-bis(furan-2-yl)-N-(phenylmethyl)quinoxaline-6-carboxamide] | 16 | – |
| COc1ccc(N2C(=O)C(Cl)=C(Oc3cccc(OC)c3)C2=O)cc1 [3-chloro-4-(3-methoxyphenoxy)-1-(4-methoxyphenyl)-1H-pyrrole-2,5-dione] | 1.65 | – |
| CNC1CCC(Br)CC(C(=O)C=Cc2cccc(OC)c2OC)C1=O (centres undefined) [4-bromo-2-[(E)-3-(2,3-dimethoxyphenyl)-1-oxoprop-2-enyl]-7-(methylamino)-1-cycloheptanone] | 37.4 | – |
| COc1cc(/N=C2\SSNC2Cl)c(OC)cc1Cl (centres undefined) [4-chloro-N-(4-chloro-2,5-dimethoxyphenyl)-5-dithiazolidinimine] | 21.5 | – |
| Cc1ccc(-c2nc3c(c(=O)[nH]c(=O)n3Cc3ccccc3)n2C)o1 [7-methyl-8-(5-methyl-2-furanyl)-3-(phenylmethyl)purine-2,6-dione] | 34.2 | – |
| O=C1NC(=O)C2(Cc3c(nc4ccccn4c3=O)N3CCCCCC32)C(=O)N1Cc1ccccc1 (centres undefined) [MLS000083668] | 3.18 | – |
| COc1ccc(CCNC(=O)c2ccc3nc(-c4ccco4)c(-c4ccco4)nc3c2)cc1OC [N-[2-(3,4-dimethoxyphenyl)ethyl]-2,3-di-2-furylquinoxaline-6-carboxamide] | 14.8 | – |
| Cc1cc2nn(-c3cccc4ccccc34)nc2cc1N [SMR000076237] | 2.25 | – |
| Cc1ccc(C=NNC(=O)CSc2nnc(-c3ccc(Cl)cc3)n2-c2ccccc2)o1 [SMR000218122] | – | 7.75 |
